Here are results for two compounds from ChEMBL document CHEMBL4419177, “Crystalline forms of a lysyl oxidase-like 2 inhibitor and methods of making” (2018).

Holding throughout (assay type): physicochemical
Data set [1] in a line: Stability of the compound as a solid form exposed to heat at 100 degC incubated for 24 hrs by HPLC analysis.
A short description of data set [2]: Stability of the compound as a solid form exposed to heat at 50 degC incubated for 24 hrs by HPLC analysis.
A short description of data set [3]: Stability under 1-year ICH study conditions assessed as chemical or physical changes. The settings on record: 8766 h.
The nature of data set [4]: Stability of the compound as a solid form exposed to light (max 365 nm) incubated for 24 hrs by HPLC analysis.
Data set [5] can be described thus: Stability under 2-year ICH study conditions assessed as chemical or physical changes. To be noted: 17532 h.
Data set [6] can be described thus: Solubility of compound ( form 1 ) in 150 uL water at 30 mg. To be noted: buffer.
Data set [7] in a line: Stability under 3 month accelerated condition (40 degC/75% RH ) assessed as changes in purity or absorption of moisture. The settings on record: 2191.5 h.
Data set [8] in a line: Solubility of compound ( form 1 ) in 10 uL water at 10 mg. The settings on record: buffer.

Take `CS(=O)(=O)O.NCc1cc(Oc2cccc(C(=O)N3C[C@@H](O)[C@H](F)C3)c2)nc(C(F)(F)F)c1`: the Stability entry in data set [1], in data set [2], in data set [3], in data set [4] and in data set [5] was “Stable” each time.

For `Cl.NCc1cc(Oc2cccc(C(=O)N3C[C@@H](O)[C@H](F)C3)c2)nc(C(F)(F)F)c1`, the solubility result in data set [6] and in data set [8] was “Soluble” in each case. The Stability result in data set [7] is “Stable”.
